Test results taken from PubChem BioAssay AID200 (DTP/NCI, 2004).
Values joined by “and” are separate entries in the source; they are usually repeats but may differ in a detail not shown here. Equal entries are not always repeated. Toxic doses and inconclusive results are not listed.

Test system: B6C3F1 mice, B16 melanoma ip, median survival T/C
Experiment: NCI In Vivo Anticancer Drug Screen. Data for tumor model B16 Melanoma (intraperitoneal) in B6C3F1 mice
Conditions: endpoint: median survival time, schedule: Q01DX009 (ip), higher = longer survival
Summary of the method: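 Values are T/C ratios: the measurement in treated animals divided by that in vehicle-treated controls, using survival or tumor size in mice carrying transplantable tumors.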

[1] = dose: 3.12 mg/kg/injection, vehicle: Klucel (hydroxypropylcellulose) (HPC)
[2] = dose: 6.25 mg/kg/injection, vehicle: Klucel (hydroxypropylcellulose) (HPC)
[3] = dose: 12.5 mg/kg/injection, vehicle: Klucel (hydroxypropylcellulose) (HPC)
[4] = dose: 25.0 mg/kg/injection, vehicle: Klucel (hydroxypropylcellulose) (HPC)
[5] = dose: 50.0 mg/kg/injection, vehicle: Klucel (hydroxypropylcellulose) (HPC)
[6] = dose: 12.5 mg/kg/injection, vehicle: saline
[7] = dose: 25.0 mg/kg/injection, vehicle: saline
[8] = dose: 50.0 mg/kg/injection, vehicle: saline
[9] = dose: 100.0 mg/kg/injection, vehicle: saline
[10] = dose: 100.0 mg/kg/injection, vehicle: Klucel (hydroxypropylcellulose) (HPC)
[11] = dose: 200.0 mg/kg/injection, vehicle: Klucel (hydroxypropylcellulose) (HPC)
[12] = dose: 400.0 mg/kg/injection, vehicle: Klucel (hydroxypropylcellulose) (HPC)
[13] = dose: 200.0 mg/kg/injection, vehicle: saline
[14] = dose: 6.25 mg/kg/injection, vehicle: saline
[15] = dose: 25.0 mg/kg/injection, vehicle: saline with Tween-80
[16] = dose: 50.0 mg/kg/injection, vehicle: saline with Tween-80
[17] = dose: 100.0 mg/kg/injection, vehicle: saline with Tween-80

In the case of COC1=C(C)C(=O)C2=C(C1=O)C(CO)N1C(C#N)C3CC4C(C1C2N1CCOC41)N3C (stereo unspecified), the T/C (dose: 0.06 mg/kg/injection, vehicle: acid diluted with saline) is reported as 105 % of control, the T/C (dose: 0.12 mg/kg/injection, vehicle: acid diluted with saline) is reported as 98 % of control and the T/C (dose: 0.12 mg/kg/injection, vehicle: saline + alcohol) is reported as 102 % of control. For the same molecule, the T/C (dose: 0.25 mg/kg/injection, vehicle: acid diluted with saline) was 111 % of control, the T/C (dose: 0.25 mg/kg/injection, vehicle: saline + alcohol) was 109 % of control and 104 % of control and the T/C (dose: 0.5 mg/kg/injection, vehicle: acid diluted with saline) was 116 % of control and 103 % of control. For the same molecule, the T/C (dose: 0.5 mg/kg/injection, vehicle: saline + alcohol) was 112 % of control and 113 % of control and 118 % of control, the T/C (dose: 1.0 mg/kg/injection, vehicle: acid diluted with saline) was 108 % of control and 113 % of control and the T/C (dose: 1.0 mg/kg/injection, vehicle: saline + alcohol) was 109 % of control and 121 % of control.
In the case of Cn1c(N)c(C(=O)/C=C/c2ccccc2)c(=O)n(C)c1=O, the T/C (dose: 1.56 mg/kg/injection, vehicle: Klucel (hydroxypropylcellulose) (HPC)) is reported as 101 % of control, the T/C [1] is reported as 107 % of control and the T/C [2] is reported as 106 % of control. For the same molecule, the T/C [3] was 104 % of control, the T/C [4] was 105 % of control and the T/C [5] was 116 % of control.
O=c1[nH]c(=O)c2nc(-c3cccnc3)cnc2[nH]1 was tested, and the T/C [6] was 92 % of control, the T/C [7] was 98 % of control and the T/C [8] was 95 % of control. For the same molecule, the T/C [9] was 92 % of control.
For CCN1/C(=C/C(C)=C/c2sc3ccc4ccccc4c3[n+]2CC)Sc2ccc3ccccc3c21, the T/C (dose: 0.02 mg/kg/injection, vehicle: saline with Tween-80) was 95 % of control and the T/C (dose: 0.05 mg/kg/injection, vehicle: saline with Tween-80) was 106 % of control.
For CCCCNC(C)C1(O)Cc2c(O)c3c(c(O)c2C(OC2CC(N)C(O)C(C)O2)C1)C(=O)c1c(OC)cccc1C3=O (stereo unspecified), the T/C (dose: 5.0 mg/kg/injection, vehicle: saline) was 120 % of control, the T/C (dose: 10.0 mg/kg/injection, vehicle: saline) was 174 % of control and 193 % of control and the T/C (dose: 20.0 mg/kg/injection, vehicle: saline) was 160 % of control and 222 % of control. For the same molecule, the T/C (dose: 40.0 mg/kg/injection, vehicle: saline) was 190 % of control and 333 % of control and the T/C (dose: 80.0 mg/kg/injection, vehicle: saline) was 232 % of control and 333 % of control.
In the case of O=C(O)C1(NO)CCCCC1, the T/C [3] is reported as 103 % of control and 105 % of control, the T/C [4] is reported as 111 % of control and 98 % of control and the T/C [5] is reported as 111 % of control and 105 % of control. For the same molecule, the T/C [10] was 110 % of control and 107 % of control, the T/C [11] was 103 % of control and 108 % of control and the T/C [12] was 113 % of control and 106 % of control.
In the case of NC(Cc1ccc(O)c(Cl)c1)C(=O)O (stereo unspecified), the T/C [9] is reported as 93 % of control and the T/C [13] is reported as 98 % of control.
CCN(CC)CCOCCO was tested, and the T/C (dose: 12.0 mg/kg/injection, vehicle: saline) was 105 % of control, the T/C [7] was 116 % of control and the T/C [8] was 98 % of control. For the same molecule, the T/C [9] was 90 % of control.
O=C1C2=C(C(=O)c3cnccc31)C1C=CC2CC1 (stereo unspecified) was tested, and the T/C (dose: 12.5 mg/kg/injection, vehicle: DMSO) was 115 % of control, the T/C (dose: 25.0 mg/kg/injection, vehicle: DMSO) was 98 % of control and the T/C (dose: 50.0 mg/kg/injection, vehicle: DMSO) was 111 % of control. For the same molecule, the T/C (dose: 100.0 mg/kg/injection, vehicle: DMSO) was 98 % of control.
In the case of CC1=C2C(=CO[C@H](C)[C@H]2C)C(=O)C(C(=O)O)=C1O, the T/C [2] is reported as 105 % of control, the T/C [14] is reported as 108 % of control and the T/C [3] is reported as 102 % of control. The T/C [6] was 100 % of control, the T/C [7] was 100 % of control and the T/C [8] was 98 % of control.
CC1=NNC(=O)C1CCO (stereo unspecified) was tested, and the T/C [3] was 98 % of control, the T/C [4] was 104 % of control and the T/C [5] was 98 % of control. For the same molecule, the T/C [10] was 98 % of control, the T/C [11] was 96 % of control and the T/C [12] was 96 % of control.
With O=NNc1ncc(Br)cc1Br the T/C (dose: 6.25 mg/kg/injection, vehicle: water) was 108 % of control, the T/C (dose: 12.5 mg/kg/injection, vehicle: water) was 114 % of control and the T/C (dose: 25.0 mg/kg/injection, vehicle: water) was 110 % of control. The T/C (dose: 100.0 mg/kg/injection, vehicle: water) was 98 % of control.
CC(C)CC(NC(=O)CNC(=O)CNC(=O)OCc1ccccc1)C(=O)O (stereo unspecified) was tested, and the T/C (dose: 0.75 mg/kg/injection, vehicle: Klucel (hydroxypropylcellulose) (HPC)) was 103 % of control, the T/C (dose: 1.5 mg/kg/injection, vehicle: Klucel (hydroxypropylcellulose) (HPC)) was 107 % of control and the T/C (dose: 3.0 mg/kg/injection, vehicle: Klucel (hydroxypropylcellulose) (HPC)) was 95 % of control. The T/C [1] was 101 % of control, the T/C (dose: 6.0 mg/kg/injection, vehicle: Klucel (hydroxypropylcellulose) (HPC)) was 106 % of control and the T/C [2] was 92 % of control. For the same molecule, the T/C (dose: 12.0 mg/kg/injection, vehicle: Klucel (hydroxypropylcellulose) (HPC)) was 101 % of control, the T/C [3] was 92 % of control and the T/C [4] was 115 % of control and 104 % of control. The T/C [5] was 100 % of control, the T/C [10] was 122 % of control and the T/C [11] was 89 % of control. For the same molecule, the T/C [12] was 110 % of control.
For NCCCNCCCCNC(=O)C(O)NC(=O)CC(O)CCCCN=C(N)N (stereo unspecified), the T/C [14] was 101 % of control, the T/C [6] was 99 % of control and the T/C [7] was 98 % of control and 101 % of control. For the same molecule, the T/C [8] was 99 % of control and 101 % of control and the T/C [9] was 111 % of control and 107 % of control.
C[C@@](O)(/C=C/[C@H]1CC=CC(=O)O1)[C@@H](C[C@@H](O)\C=C/C=C\C=C\CO)OP(=O)(O)O was tested, and the T/C (dose: 3.12 mg/kg/injection, vehicle: other) was 98 % of control and 105 % of control, the T/C (dose: 6.25 mg/kg/injection, vehicle: other) was 110 % of control and 102 % of control and the T/C (dose: 12.5 mg/kg/injection, vehicle: other) was 101 % of control and 103 % of control. For the same molecule, the T/C (dose: 25.0 mg/kg/injection, vehicle: other) was 99 % of control.
Nc1nc(N)c(N=O)c(Nc2ccc(Br)cc2)n1 was tested, and the T/C [15] was 114 % of control, the T/C [16] was 107 % of control and the T/C [17] was 106 % of control.
For CCN(CC)C(=S)S, the T/C [8] was 92 % of control, the T/C (dose: 50.0 mg/kg/injection, vehicle: sodium bicarbonate) was 105 % of control and the T/C [9] was 96 % of control. For the same molecule, the T/C (dose: 100.0 mg/kg/injection, vehicle: sodium bicarbonate) was 92 % of control, the T/C [13] was 102 % of control and the T/C (dose: 200.0 mg/kg/injection, vehicle: sodium bicarbonate) was 105 % of control. For the same molecule, the T/C (dose: 400.0 mg/kg/injection, vehicle: saline) was 94 % of control, the T/C (dose: 400.0 mg/kg/injection, vehicle: sodium bicarbonate) was 105 % of control and the T/C (dose: 800.0 mg/kg/injection, vehicle: saline) was 95 % of control. The T/C (dose: 800.0 mg/kg/injection, vehicle: sodium bicarbonate) was 95 % of control.
In the case of CC(C)(O)/C=C/C(=O)[C@](C)(O)[C@H]1[C@H](O)C[C@@]2(C)[C@@H]3CC=C4[C@@H](C[C@H](O)C(=O)C4(C)C)[C@]3(C)C(=O)C[C@]12C, the T/C (dose: 0.5 mg/kg/injection, vehicle: saline + Tween-80 + alcohol) is reported as 102 % of control and the T/C (dose: 1.0 mg/kg/injection, vehicle: saline + Tween-80 + alcohol) is reported as 98 % of control.
For C[Si](C)(C)n1nnn(-c2ccccc2)c1=O, the T/C (dose: 12.5 mg/kg/injection, vehicle: saline with Tween-80) was 101 % of control and 103 % of control, the T/C [15] was 100 % of control and 105 % of control and the T/C [16] was 119 % of control and 100 % of control. The T/C [17] was 92 % of control and 95 % of control, the T/C (dose: 200.0 mg/kg/injection, vehicle: saline with Tween-80) was 93 % of control and 101 % of control and the T/C (dose: 400.0 mg/kg/injection, vehicle: saline with Tween-80) was 95 % of control.
